The subject of data set [1] is neutrophils. Kind of data set: Superoxide anion (ROS) production in neutrophils. It counts as cell-based. The protocol:
The effect of superoxide anion production in neutrophils by the peptoid-comprising analogs in which a peptoid residue was substituted for K, Y, and M in the structure of WKYMVm was measured.

The next data set can be described thus: FIG. 17. The source says:
Table printed on a drawing sheet, FIG. 17

Data set [2] relates to neutrophils. The experiment in a line: Degranulation activity of neutrophils (beta-hexosaminidase activity). The data set is classed as cell-based. As to the method: The degranulation activity of neutrophils by the analogs in which each amino acid in the structure of WKYMVm was substituted with a β-amino acid was compared and analyzed by measuring beta-hexosaminidase activity.
The degranulation activity of neutrophils by the peptoid-containing analogs in which a peptoid residue was substituted for K, Y, and M in the structure of WKYMVm was measured.

Data set [3] deals with neutrophils. Kind of data set: Neutrophil chemotaxis assay using a Boyden chamber. It counts as cell-based. As to the method: To investigate the effect of the WKYMVm peptide analogs on the regulation of immune cell mobility, which a representative function of FPR, a chemotaxis assay was performed using a Boyden chamber.
To measure the in vitro innate immune activity of four peptides comprising one non-natural β^3-amino acid residue, the effect of enhancing neutrophil mobility was measured.

The next data set addresses FPR1 (Homo sapiens, UniProt P21462). Kind of data set: cell-based. The following applies: FPR1-expressing RBL-2H3 cell line. As to the method: To investigate whether activation of FPR1, which is important in regulating the activity of innate immune cells, is induced by the WKYMVm peptide analogs, changes in calcium ions were measured in RBL-2H3 cell line, a type of mast cell that artificially expressed FPR1. […] On the other hand, an increase in intracellular calcium ions by WKYMVβm (V is a β-amino acid) through activation of FPR1 was not observed.

The next data set addresses FPR2 (Homo sapiens, UniProt P25090). Kind of data set: cell-based. The note with it: FPR2-expressing RBL-2H3 cell line. The protocol:
To investigate whether activation of FPR2 is induced by the WKYMVm peptide analogs, changes in calcium ions were measured in RBL-2H3 cell line that artificially expressed FPR2.

The test system of data set [4] is neutrophils.
The test system of data set [5] is neutrophils isolated from mouse bone marrow. The experiment in a line: Cytokine secretion of neutrophils by ELISA, with or without LPS. It counts as cell-based. The following applies: 1 μM. As to the method: Neutrophils regulate the activity of other immune cells through the production of various types of cytokines. To investigate the effect of the WKYMVm peptide analogs on regulating cytokine production in neutrophils, […], and 24 hours later, the supernatants were collected and subjected to an enzyme-linked immunosorbent assay (ELISA) to measure the amount of cytokine secretion.

Another data set can be described thus: 【FIG 16】. An excerpt: Table printed on a drawing sheet, 【FIG 16】

Numbered stars: 1 amine (or outer) side, 2 acyl side, 3 side chain; on linkers, the order of the positions; unused ones are H or OH. Square brackets hold non-standard residues; d marks the D form. Peptide text beside a SMILES is read from it. Gly(N-4-hydroxybenzyl) = O=C(O)CNCc1ccc(O)cc1; X1 = CSCCN(CC(=O)[*:2])[*:1]

Sequence of FPR1 (P21462 whole entry): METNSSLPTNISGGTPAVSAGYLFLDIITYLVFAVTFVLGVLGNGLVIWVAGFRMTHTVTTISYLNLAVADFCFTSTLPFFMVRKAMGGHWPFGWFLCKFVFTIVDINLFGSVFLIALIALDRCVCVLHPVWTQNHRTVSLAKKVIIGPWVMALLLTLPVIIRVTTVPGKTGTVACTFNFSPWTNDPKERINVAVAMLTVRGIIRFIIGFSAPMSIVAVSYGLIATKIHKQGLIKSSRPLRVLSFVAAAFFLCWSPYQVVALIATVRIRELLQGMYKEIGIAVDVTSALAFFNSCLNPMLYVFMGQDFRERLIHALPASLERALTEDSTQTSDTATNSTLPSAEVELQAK
Sequence of FPR2 (P25090 whole entry): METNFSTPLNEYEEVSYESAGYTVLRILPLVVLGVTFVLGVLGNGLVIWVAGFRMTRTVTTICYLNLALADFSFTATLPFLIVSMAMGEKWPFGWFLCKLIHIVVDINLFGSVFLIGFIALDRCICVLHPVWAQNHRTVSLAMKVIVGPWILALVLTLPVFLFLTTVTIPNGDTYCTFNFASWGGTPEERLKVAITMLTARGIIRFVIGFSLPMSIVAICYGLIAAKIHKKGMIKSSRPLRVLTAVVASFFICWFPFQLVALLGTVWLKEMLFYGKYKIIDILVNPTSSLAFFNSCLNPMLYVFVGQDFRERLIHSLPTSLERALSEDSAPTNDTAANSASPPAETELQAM

For `CSCC[C@@H](NC(=O)[C@@H](NC(=O)CN(CCSC)C(=O)[C@H](Cc1ccc(O)cc1)NC(=O)[C@H](CCCCN)NC(=O)[C@@H](N)Cc1c[nH]c2ccccc12)C(C)C)C(N)=O` [M peptoid] (H-WKY[X1]V[dM]-NH2), in the data set on neutrophils [1], the “superoxide anion production in neutrophils” value (shortened to “superoxide anion production”) is on record as “effectively promote superoxide anion production”. In addition, the “Half-Life” value in the data set “FIG. 17” is 2.5 h. Moreover, the “degranulation activity of neutrophils” value with neutrophils [2] is listed as “promoted the degranulation activity of neutrophils to the extent similar to the WKYMVm peptide”.

With `CSCC[C@H](NC(=O)[C@H](Cc1ccc(O)cc1)NC(=O)[C@H](CCCCN)NC(=O)[C@@H](N)Cc1c[nH]c2ccccc12)C(=O)N[C@H](CC(=O)N[C@H](CCSC)C(N)=O)C(C)C` [WKYMVβm], the “effect of enhancing neutrophil mobility, compared with the WKYMVm peptide” value in the data set with neutrophils [3] is on record as “weak activity only at high concentrations”. Moreover, the “neutrophil mobility at 1 μM” value in the data set with neutrophils [3] (1 μM) is given as “highly active neutrophil mobility promotion effect was induced”. In the data set with neutrophils [3] (low concentration), the “neutrophil mobility at a low concentration” value is reported as “not promoted”. Further, the “superoxide anion production” value with neutrophils [1] is “did not induce superoxide anion production”. On FPR1, the “increase in intracellular calcium ions through activation of FPR1 (in words)” value is recorded as “not observed”. Further, the “increase in intracellular calcium ions through activation of FPR2 (in words)” value at FPR2 is “not observed”. For the same molecule, the “calcium ion-increasing effect in neutrophils” value in the data set with neutrophils [4] was “not exhibited”. The “degranulation activity of neutrophils” value in the data set on neutrophils [2] is recorded as “did not induce the degranulation activity of neutrophils”. Moreover, in [5], the “effect in regulating the neutrophil activity (LPS-induced cytokines)” value is reported as “minimal effect”.

Turning to `CSCC[C@H](NC(=O)CN(Cc1ccc(O)cc1)C(=O)[C@H](CCCCN)NC(=O)[C@@H](N)Cc1c[nH]c2ccccc12)C(=O)N[C@H](C(=O)N[C@H](CCSC)C(N)=O)C(C)C` [Y peptoid] (H-WK[Gly(N-4-hydroxybenzyl)]MV[dM]-NH2), the “superoxide anion production” value in the data set with neutrophils [1] was “effectively promote superoxide anion production”. In addition, in “FIG. 17”, the “Half-Life” value is on record as 1.1 h. For the same molecule, the “degranulation activity of neutrophils” value with neutrophils [2] was “promoted the degranulation activity of neutrophils to the extent similar to the WKYMVm peptide”.

Regarding WKYMVm (W), the “Half-Life” value in the data set “FIG. 17” was found to be 2.0 h; in the data set “【FIG 16】” it was 2.6 h.

For the molecule WKYMβVm (βM), the “Half-Life” value in “【FIG 16】” was determined as 2.4 h.

Take WKYβMVm (βY): the “Half-Life” value in the data set “【FIG 16】” was determined as 2.1 h.

Take WKβYMVm (βK): in “【FIG 16】”, the “Half-Life” value came to 4.9 h.

On to WKβYMβVm (βKβM), for which, in the data set “【FIG 16】”, the “Half-Life” value is 8.7 h.

The values above are taken from US20250032573A1, “IMMUNITY-ENHANCING PEPTIDE ANALOGS AND USES THEREOF” (RESEARCH & BUSINESS FOUNDATION SUNGKYUNKWAN UNIVERSITY, priority 2023, published 2025).
